These are literature values, as cited in US9498539B2, “Affinity-based controlled release system” (priority 2012, dated 2016).

Read-outs that look alike come from different tables or passages of the source. Where only a bound is given, the exact number is not on record here.

The conditions of series [1]: 24 h; cited from earlier work.
Series [2] addresses Src homology 3 domain (SH3) (Saccharomyces cerevisiae, UniProt P15891). The settings on record: read-out: Kd (affinity to SH3), SH3-binding peptide to SH3, not part of the composition, cited from earlier work.
In a further series the target is Streptavidin (Streptomyces avidinii, UniProt P22629). The settings on record: streptavidin binds 2-iminobiotin, medium affinity; cited from earlier work.
Streptavidin, sequence (P22629 25-183): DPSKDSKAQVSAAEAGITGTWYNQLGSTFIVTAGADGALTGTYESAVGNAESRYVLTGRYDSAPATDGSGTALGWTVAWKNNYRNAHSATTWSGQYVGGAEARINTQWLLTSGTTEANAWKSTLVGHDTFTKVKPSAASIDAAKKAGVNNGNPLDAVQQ

Src homology 3 domain (SH3), sequence (P15891 532-592 limits assumed): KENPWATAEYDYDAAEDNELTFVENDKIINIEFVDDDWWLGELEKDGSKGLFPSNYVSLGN

With “FGF-2: basic fibroblast growth factor, literature data of Nakamura et al.”, the remaining bioactivity in series [1] is under 10%.
The Kd is the equilibrium constant for the complex coming apart. KPPVVKKPHYLS [compound 4]: the Kd was 27 µM in series [2] and 10 µM in series [2] (listed as weak binder).
With `N=C1N[C@H]2[C@H](CS[C@H]2CCCCC(=O)O)N1` [2-iminobiotin], the Kd at Streptavidin was 12.5 µM.
